Molecular target: 5-HT2A receptors (Homo sapiens (Human), UniProt P28223)
Assay: 5-HT2A agonist and antagonist calcium assay (Calcium NWPLUS, FLIPR)
Format: cell-based
Method: The DiscoveRx Calcium NWPLUS Assay was used for detection of changes in intracellular calcium as signalled by an increase of dye fluorescence in cells expressing 5-HT2A receptors. Signal was measured on a fluorescent plate reader equipped with fluidic handling capable of detecting rapid changes in fluorescence upon compound stimulation.
To conduct the assay, cell lines were expanded from freezer stocks according to standard procedures. Cells (10,000 cells/well) were seeded in a total volume of 50 μL (200 cells/μL) into black-walled, clear-bottom, Poly-D-lysine coated 384-well microplates and incubated at 37-C for the appropriate time prior to testing. DMSO concentration for all readouts was ≤0.2%.
Assays were performed in 1×DyeLoading Buffer consisting of 1×Dye (DiscoverX, Calcium No WashPLUS kit, Catalog No. 90-0091), 1×Additive A and 2.5 mM Probenecid in HBSS/20 mM Hepes. Probenecid was prepared fresh. Cells were loaded with dye prior to testing. Media was aspirated from cells and replaced with 25 μL Dye Loading Buffer. Test compounds were assayed at 10 concentrations with the highest concentration either 30 or 10 μM and subsequent concentrations using a 0.33 dilution factor. Cells with testing sample were incubated for 45 minutes at 37° C. and then 20 minutes at room temperature. After dye loading, cells were removed from the incubator and 25 μL of 2×compound in HBSS/20 mM Hepes was added using a FLIPR Tetra (MDS). […]
Compound agonist activity was measured on a FLIPR Tetra. Calcium mobilization was monitored for 2 minutes with a 5 second baseline read. FLIPR read-Area under the curve was calculated for the two minute read. Compound activity was analyzed using CBIS data analysis suite (ChemInnovation, CA). Percentage activity was calculated as 100%×(mean RFU of test sample−mean RFU of vehicle control)/(mean MAX RFU control ligand −mean RFU of vehicle control). For antagonist mode assays, percentage inhibition was calculated as 100%×(1−(mean RFU of test sample−mean RFU of vehicle control)/(mean RFU of EC80 control−mean RFU of vehicle control)).

## CN[C@H](C)Cc1ccc2ccoc2c1 [Compound R-6-MAPB, (R)-1-(benzofuran-6-yl)-N-methylpropan-2-amine]
  EC50: 4.62 µM
